According to patent publication EP0146155A1, “Ether of N-propanolamine derivative” (AKZO N.V., priority 1983, dated 1985):

Legend:
rat = test: arrhythmogenic activity under specific hypokalaemic conditions in the rat; format: in vivo
patients = conditions: clinical use; predominantly elderly patients, often hypokalaemic conditions; cited from earlier work
[1] = QTc prolongation in the ECG (electrocardiogram); format: in vivo
solubility in water = format: physicochemical; conditions: compared with the racemate
calcium = test: calcium-antagonistic activity (measure for anti-anginal activity); conditions: compared with either the racemate or the levo-rotatory isomer
anti-arrhythmic potency = conditions: compared with the racemate and the levo-rotatory isomer

SMILES	arrhythmogenic activity (rat)	rhythm disturbance of the ventricular tachycardia type (patients)	QTc prolongation [1]	solubility in water (solubility in water)	calcium-antagonistic activity (calcium)	anti-arrhythmic potency (anti-arrhythmic potency)
CC(C)COCC(CN(Cc1ccccc1)c1ccccc1)N1CCCC1 (racemic) [racemate, bepridil, reference compound]	exacerbates arrhythmias	in rare cases been attended by a self limiting rhythm disturbance of the so-called ventricular tachycardia type	–	–	–	–
CC(C)COC[C@@H](CN(Cc1ccccc1)c1ccccc1)N1CCCC1 [R-(dextro-rotatory) isomer, R-β-[(2-methylpropoxy)-methyl]-N-phenyl-N-(phenylmethyl)-l-pyrrolidine-ethanamine]	do not possess arrhythmogenic activity	–	does not produce QTc prolongation	much better solubility in water than the racemate	significant increase of calcium-antagonistic activity	not significantly different
